Measured values as given in ChEMBL document CHEMBL1130520, “Solid phase synthesis of C-terminal carbohydrate modified enkephalins” (Bioorg Med Chem Lett, 1997).
Starred links: 1 amine or outer side, 2 acyl side, 3 side chain; linkers in the order of their positions; H or OH if unused. Non-standard residues stand in square brackets, D forms with d. Residues, ends and D or L forms follow the SMILES beside them. *: point of attachment. X1 = NC(=O)[C@@H]1O[C@@H](N*)[C@@H](O)[C@@H](O)[C@@H]1O; X3 = O=C(O)[C@@H]1O[C@@H](N*)[C@@H](O)[C@@H](O)[C@@H]1O; X2 = O=C(O)C1OC(NC(=O)C2OC(N*)C(O)C(O)C2O)C(O)C(O)C1O; hMet = CSCCC[C@H](N)C(=O)O; CO = O=C([*:1])[*:2]

How the values were obtained:
Type in all cases: functional
Cavia porcellus [1] = species: Cavia porcellus; experiment: Compound was tested in vitro for inhibiting electrically stimulated muscle contractions in guinea pig ileum (GPI)
Mus musculus [2] = species: Mus musculus; experiment: Compound was tested for relative potency with respect to the compound Enkephalinamide in MVD assay
Mus musculus [3] = species: Mus musculus; experiment: Compound was tested in vitro for inhibiting electrically stimulated muscle contractions in mouse vas deferens (MVD); conditions: Muscle tissue
Cavia porcellus [4] = species: Cavia porcellus; experiment: Compound was tested for relative potency with respect to the compound Enkephalinamide in GPI assay

IC50 (Cavia porcellus [1]) [µM] | IC50 (Mus musculus [3]) [µM] | Structure (SMILES) | Relative potency (Mus musculus [2]) | Relative potency (Cavia porcellus [4])
1.04 | 0.55 | CC(C)C[C@H](NC(=O)NC1OC(C(=O)NC2OC(C(=O)O)C(O)C(O)C2O)C(O)C(O)C1O)C(=O)N[C@@H](Cc1ccccc1)C(=O)NCC(=O)NCC(=O)N[C@@H](Cc1ccc(O)cc1)C(=O)O (stereo not given in full) ({X2-CO}-LFGGY-OH) | 2.56 | 0.52
0.2 | 0.008 | CC(C)C[C@H](NC(=O)N[C@@H]1O[C@@H](C(=O)O)[C@@H](O)[C@H](O)[C@@H]1O)C(=O)N[C@@H](Cc1ccccc1)C(=O)NCC(=O)NCC(=O)N[C@@H](Cc1ccc(O)cc1)C(=O)O ({X3-CO}-LFGGY-OH) | 35.39 | 2.74
3.86 | 0.11 | CC(C)C[C@H](NC(=O)N[C@@H]1O[C@@H](C(N)=O)[C@@H](O)[C@H](O)[C@@H]1O)C(=O)N[C@@H](Cc1ccccc1)C(=O)NCC(=O)NCC(=O)N[C@@H](Cc1ccc(O)cc1)C(=O)O ({X1-CO}-LFGGY-OH) | 0.51 | 0.14
0.11 | 0.07 | CSCCC[C@H](NC(=O)N[C@@H]1O[C@@H](C(=O)O)[C@@H](O)[C@H](O)[C@@H]1O)C(=O)N[C@@H](Cc1ccccc1)C(=O)NCC(=O)NCC(=O)N[C@@H](Cc1ccc(O)cc1)C(=O)O ({X3-CO}-[hMet]FGGY-OH) | 3.8 | 4.54

Structure (SMILES) | IC50 (Cavia porcellus [1]) [µM] | IC50 (Mus musculus [3]) [µM] | Relative potency (Mus musculus [2]) | Relative potency (Cavia porcellus [4])
CC(C)C[C@H](NC(=O)[C@H](Cc1ccccc1)NC(=O)CNC(=O)CNC(=O)[C@@H](N)Cc1ccc(O)cc1)C(N)=O (single isomer, unassigned) [[LEU5]ENKEPHALIN] | 0.54 | 0.28 | 1 | 1
